Source: ChEMBL document CHEMBL4813963, “Discovery of pyrazolo-thieno[3,2-d]pyrimidinylamino-phenyl acetamides as type-II pan-tropomyosin receptor kinase (TRK) inhibitors: Design, synthesis, and biological evaluation” (Eur J Med Chem, 2021)

Key:
[1] = molecular target: T1, High affinity nerve growth factor receptor (Homo sapiens, UniProt P04629); assay: Inhibition of recombinant His-tagged human TRKA (441 to 796 residues) expressed in baculovirus expression system at 20 uM using 5-FAM-EEPLYWSFPAKKK-CONH2 as substrate preincubated for 1 hr followed by substrate addition in presence of ATP by mobility shift assay relative to control
Target sequence in this assay (P04629 33-796 limits assumed): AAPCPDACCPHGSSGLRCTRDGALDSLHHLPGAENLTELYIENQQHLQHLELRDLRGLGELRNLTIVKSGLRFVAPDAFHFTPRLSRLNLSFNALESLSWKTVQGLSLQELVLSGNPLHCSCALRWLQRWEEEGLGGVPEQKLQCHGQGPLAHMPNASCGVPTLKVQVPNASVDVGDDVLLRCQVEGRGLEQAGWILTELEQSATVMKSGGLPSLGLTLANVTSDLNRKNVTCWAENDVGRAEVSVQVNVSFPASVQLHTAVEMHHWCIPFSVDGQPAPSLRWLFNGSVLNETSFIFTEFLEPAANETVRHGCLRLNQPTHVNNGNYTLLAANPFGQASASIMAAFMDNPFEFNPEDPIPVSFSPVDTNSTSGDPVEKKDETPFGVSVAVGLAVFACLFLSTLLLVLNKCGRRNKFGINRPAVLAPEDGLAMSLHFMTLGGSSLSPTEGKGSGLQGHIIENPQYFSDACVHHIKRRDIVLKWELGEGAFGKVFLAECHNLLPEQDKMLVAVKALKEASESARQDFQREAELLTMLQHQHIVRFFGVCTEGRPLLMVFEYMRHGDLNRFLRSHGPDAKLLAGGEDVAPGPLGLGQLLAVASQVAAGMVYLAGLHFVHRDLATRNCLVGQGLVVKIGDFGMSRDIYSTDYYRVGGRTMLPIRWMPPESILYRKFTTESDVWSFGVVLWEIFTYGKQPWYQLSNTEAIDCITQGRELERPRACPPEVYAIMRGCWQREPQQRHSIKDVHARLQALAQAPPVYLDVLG

KM12 = assay: Cytotoxicity against human KM12 cells assessed as reduction in cell viability incubated for 72 hrs by resazurin based assay; assay type: functional; conditions: KM12, 72 h
[2] = Permeability of compound in human brain like endothelial cells BBB model at 10 uM after 120 mins by LC-MS analysis; assay type: ADME, cell-based; conditions: read-out: permeability (converted)
Aurora kinase A = Aurora kinase A (Homo sapiens, UniProt O14965); assay: Inhibition of Aurora A (unknown origin)
Aurora kinase B = Aurora kinase B (Homo sapiens, UniProt Q96GD4); assay: Inhibition of Aurora B (unknown origin)
[3] = molecular target: Macrophage colony-stimulating factor 1 receptor (Homo sapiens, UniProt P07333); assay: Inhibition of CSF1R (unknown origin)
[4] = molecular target: Mitogen-activated protein kinase kinase kinase kinase 4 (Homo sapiens, UniProt O95819); assay: Inhibition of MAP4K4 (unknown origin)
[5] = molecular target: Epidermal growth factor receptor (Homo sapiens, UniProt P00533); assay: Inhibition of EGFR (unknown origin)
[6] = molecular target: Serine/threonine-protein kinase Nek2 (Homo sapiens, UniProt P51955); assay: Inhibition of NEK2 (unknown origin)
[7] = molecular target: T1, High affinity nerve growth factor receptor; assay: Inhibition of recombinant His-tagged human TRKA (441 to 796 residues) expressed in baculovirus expression system using 5-FAM-EEPLYWSFPAKKK-CONH2 as substrate preincubated for 1 hr followed by substrate addition in presence of ATP by mobility shift assay
Target sequence in this assay (P04629 whole entry, the tested form may be a part): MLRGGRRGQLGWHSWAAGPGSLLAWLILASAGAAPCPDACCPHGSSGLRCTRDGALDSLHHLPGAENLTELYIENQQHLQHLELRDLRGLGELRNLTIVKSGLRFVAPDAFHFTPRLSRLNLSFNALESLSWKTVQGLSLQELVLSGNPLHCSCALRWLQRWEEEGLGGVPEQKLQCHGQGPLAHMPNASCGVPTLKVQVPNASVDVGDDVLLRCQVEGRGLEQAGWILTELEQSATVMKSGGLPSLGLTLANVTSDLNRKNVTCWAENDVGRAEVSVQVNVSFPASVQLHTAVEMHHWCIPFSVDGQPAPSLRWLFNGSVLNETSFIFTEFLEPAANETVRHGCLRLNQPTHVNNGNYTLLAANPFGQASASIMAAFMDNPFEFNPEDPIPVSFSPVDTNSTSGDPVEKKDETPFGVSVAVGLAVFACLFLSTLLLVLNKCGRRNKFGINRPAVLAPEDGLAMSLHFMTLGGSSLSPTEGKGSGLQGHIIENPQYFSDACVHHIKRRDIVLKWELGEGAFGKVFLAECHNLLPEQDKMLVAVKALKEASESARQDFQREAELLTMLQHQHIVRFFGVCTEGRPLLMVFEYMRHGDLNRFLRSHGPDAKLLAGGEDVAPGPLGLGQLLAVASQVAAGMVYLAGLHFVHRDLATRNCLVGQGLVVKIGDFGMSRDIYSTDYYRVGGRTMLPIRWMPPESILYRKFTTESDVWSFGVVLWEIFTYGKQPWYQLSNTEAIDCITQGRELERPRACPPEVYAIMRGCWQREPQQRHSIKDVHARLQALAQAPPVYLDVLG

Epidermal growth factor receptor, sequence (P00533 whole entry): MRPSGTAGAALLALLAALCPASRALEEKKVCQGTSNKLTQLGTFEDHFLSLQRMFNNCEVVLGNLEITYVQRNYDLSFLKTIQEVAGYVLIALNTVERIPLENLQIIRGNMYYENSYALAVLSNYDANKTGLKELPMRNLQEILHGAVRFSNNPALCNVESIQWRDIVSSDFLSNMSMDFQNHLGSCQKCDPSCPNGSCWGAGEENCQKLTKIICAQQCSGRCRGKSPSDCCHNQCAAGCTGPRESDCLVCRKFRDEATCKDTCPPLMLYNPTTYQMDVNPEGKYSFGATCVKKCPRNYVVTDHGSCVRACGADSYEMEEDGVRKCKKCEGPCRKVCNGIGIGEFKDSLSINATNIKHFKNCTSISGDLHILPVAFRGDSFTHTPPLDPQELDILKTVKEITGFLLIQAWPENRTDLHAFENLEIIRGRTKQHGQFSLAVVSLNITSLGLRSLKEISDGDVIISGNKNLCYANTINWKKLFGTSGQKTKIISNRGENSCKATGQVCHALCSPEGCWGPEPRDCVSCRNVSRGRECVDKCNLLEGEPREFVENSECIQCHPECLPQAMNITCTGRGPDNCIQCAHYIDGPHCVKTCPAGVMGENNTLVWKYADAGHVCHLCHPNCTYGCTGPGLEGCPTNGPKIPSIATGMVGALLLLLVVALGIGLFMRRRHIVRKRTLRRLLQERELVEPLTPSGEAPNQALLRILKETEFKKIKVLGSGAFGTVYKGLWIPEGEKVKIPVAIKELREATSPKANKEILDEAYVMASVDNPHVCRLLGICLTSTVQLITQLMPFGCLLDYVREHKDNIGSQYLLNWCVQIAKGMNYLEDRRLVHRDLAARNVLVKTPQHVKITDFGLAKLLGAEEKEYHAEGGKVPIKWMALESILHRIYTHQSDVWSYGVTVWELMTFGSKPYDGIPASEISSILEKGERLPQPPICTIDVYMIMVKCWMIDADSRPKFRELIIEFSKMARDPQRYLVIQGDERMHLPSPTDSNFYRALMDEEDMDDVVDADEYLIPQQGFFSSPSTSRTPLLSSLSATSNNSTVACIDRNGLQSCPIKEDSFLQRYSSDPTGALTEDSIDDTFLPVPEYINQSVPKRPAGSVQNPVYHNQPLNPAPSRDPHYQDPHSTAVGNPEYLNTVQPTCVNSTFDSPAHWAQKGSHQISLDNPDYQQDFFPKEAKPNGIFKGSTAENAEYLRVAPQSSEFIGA
Mitogen-activated protein kinase kinase kinase kinase 4, sequence (O95819 whole entry): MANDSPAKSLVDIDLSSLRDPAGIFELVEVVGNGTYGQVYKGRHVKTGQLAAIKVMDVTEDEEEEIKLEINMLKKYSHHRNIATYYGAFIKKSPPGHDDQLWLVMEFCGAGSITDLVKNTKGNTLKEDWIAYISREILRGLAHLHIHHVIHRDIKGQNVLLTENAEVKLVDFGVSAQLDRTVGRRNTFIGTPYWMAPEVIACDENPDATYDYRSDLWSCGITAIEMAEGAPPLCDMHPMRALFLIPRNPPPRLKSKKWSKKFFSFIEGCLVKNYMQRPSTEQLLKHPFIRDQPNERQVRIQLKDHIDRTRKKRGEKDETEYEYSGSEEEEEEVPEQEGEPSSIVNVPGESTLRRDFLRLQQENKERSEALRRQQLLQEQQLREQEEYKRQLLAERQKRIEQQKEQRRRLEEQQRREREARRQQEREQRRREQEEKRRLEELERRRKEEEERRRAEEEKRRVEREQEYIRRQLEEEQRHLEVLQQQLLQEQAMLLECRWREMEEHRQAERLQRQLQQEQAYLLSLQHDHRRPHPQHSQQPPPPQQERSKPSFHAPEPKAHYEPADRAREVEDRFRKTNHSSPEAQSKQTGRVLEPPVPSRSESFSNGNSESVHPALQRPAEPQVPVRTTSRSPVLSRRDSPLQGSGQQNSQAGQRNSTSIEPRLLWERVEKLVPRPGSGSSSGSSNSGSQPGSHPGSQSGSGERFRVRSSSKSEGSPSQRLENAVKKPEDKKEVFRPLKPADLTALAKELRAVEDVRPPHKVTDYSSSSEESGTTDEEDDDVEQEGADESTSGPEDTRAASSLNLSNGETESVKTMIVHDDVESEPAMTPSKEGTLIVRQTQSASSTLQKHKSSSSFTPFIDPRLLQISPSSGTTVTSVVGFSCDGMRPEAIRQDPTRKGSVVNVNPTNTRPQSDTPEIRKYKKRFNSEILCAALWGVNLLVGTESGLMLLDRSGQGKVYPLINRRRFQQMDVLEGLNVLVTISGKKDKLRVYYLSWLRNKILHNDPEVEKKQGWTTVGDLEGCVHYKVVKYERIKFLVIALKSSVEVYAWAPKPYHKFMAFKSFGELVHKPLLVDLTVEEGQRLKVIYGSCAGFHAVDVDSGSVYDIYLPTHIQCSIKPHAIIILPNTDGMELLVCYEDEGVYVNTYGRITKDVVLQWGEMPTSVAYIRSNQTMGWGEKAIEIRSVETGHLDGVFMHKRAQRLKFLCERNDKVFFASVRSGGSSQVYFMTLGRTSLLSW
Aurora kinase B, sequence (Q96GD4 whole entry): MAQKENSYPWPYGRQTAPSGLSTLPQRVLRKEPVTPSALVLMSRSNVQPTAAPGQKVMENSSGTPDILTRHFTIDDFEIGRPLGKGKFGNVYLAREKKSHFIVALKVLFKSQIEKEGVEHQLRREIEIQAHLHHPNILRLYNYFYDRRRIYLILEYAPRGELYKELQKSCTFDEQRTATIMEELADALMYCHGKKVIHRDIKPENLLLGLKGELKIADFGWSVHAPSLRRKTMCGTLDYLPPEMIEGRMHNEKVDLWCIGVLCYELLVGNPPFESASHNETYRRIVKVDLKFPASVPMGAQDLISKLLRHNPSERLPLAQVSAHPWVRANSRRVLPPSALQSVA
Serine/threonine-protein kinase Nek2, sequence (P51955 whole entry, the tested form may be a part): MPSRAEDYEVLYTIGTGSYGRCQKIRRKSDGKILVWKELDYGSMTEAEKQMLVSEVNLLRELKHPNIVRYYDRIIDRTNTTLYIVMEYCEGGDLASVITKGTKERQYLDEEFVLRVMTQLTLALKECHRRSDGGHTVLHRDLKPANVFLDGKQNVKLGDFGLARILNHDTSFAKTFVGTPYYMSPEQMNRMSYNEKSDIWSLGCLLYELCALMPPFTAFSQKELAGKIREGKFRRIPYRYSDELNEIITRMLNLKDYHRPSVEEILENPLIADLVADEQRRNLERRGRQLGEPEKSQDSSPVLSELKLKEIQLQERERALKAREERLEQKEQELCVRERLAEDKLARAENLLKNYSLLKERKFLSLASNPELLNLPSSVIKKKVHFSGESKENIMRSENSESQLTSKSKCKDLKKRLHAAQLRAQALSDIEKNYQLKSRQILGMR

For `COc1ccc(Nc2ncnc3ccsc23)cc1`, the inhibition [1] was 18% and the IC50 (KM12) was 103 µM.

`Cn1cc(-c2cc3ncnc(Nc4ccc(CC(=O)Nc5cc(C(C)(C)C)nn5C)cc4)c3s2)cn1` showed a Papp at 2 h, 10 µM [2] of 50.5 ×10⁻⁶ cm/s, an IC50 (Aurora kinase A) of 0.893 µM and an IC50 (Aurora kinase B) of 1.99 µM. The IC50 [3] was 13.6 µM, the IC50 [4] was 41.5 µM and the IC50 [5] was 176 µM. The IC50 [6] was greater than 200 µM.

In the case of `O=C(Cc1ccc(Nc2ncnc3ccsc23)cc1)N[C@H]1CCCC[C@@H]1O`, the IC50 [7] is reported as 40.5 µM and the IC50 (KM12) is reported as greater than 200 µM.

Work on `COc1cc(-c2cc3ncnc(Nc4ccc(CC(=O)Nc5ccc(F)c(Cl)c5)cc4)c3s2)cc(OC)c1OC` yielded an IC50 [7] greater than 200 µM.
